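A five-concentration, 48-hour dose response in 96-well plates underlies each endpoint, interpolated linearly between surrounding concentrations. The concentration for 50% growth inhibition is given as GI50. TGI: total growth inhibition.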
What was measured:
Experiment in all cases: NCI anticancer screen, dose series, 48 h
SF-295 CNS = test system: SF-295 CNS
SNB-75 CNS = test system: SNB-75 CNS
OVCAR-5 ovarian = test system: OVCAR-5 ovarian
HOP-62 NSCLC = test system: HOP-62 NSCLC
RXF 393 renal = test system: RXF 393 renal
TK-10 renal = test system: TK-10 renal
HL-60(TB) leukemia = test system: HL-60(TB) leukemia
NCI-H226 lung = test system: NCI-H226 lung
NCI/ADR-RES ovarian = test system: NCI/ADR-RES ovarian
A498 renal = test system: A498 renal

Row | SMILES | TGI (SF-295 CNS) [µM] | TGI (SNB-75 CNS) [µM] | TGI (OVCAR-5 ovarian) [µM] | TGI (HOP-62 NSCLC) [µM] | TGI (RXF 393 renal) [µM] | TGI (TK-10 renal) [µM] | TGI (HL-60(TB) leukemia) [µM] | TGI (NCI-H226 lung) [µM] | TGI (NCI/ADR-RES ovarian) [µM] | TGI (A498 renal) [µM] | GI50 (RXF 393 renal) [µM]
1 | COc1ccccc1NC(=O)CC(=O)N1N=C(N2c3ccccc3Sc3ccccc32)CC1c1ccccc1 (centres undefined) | > 100 | > 100 | > 100 | > 100 | > 100 | > 100 | > 100 | > 100 | > 100 | > 100 | 
2 | Cc1ccc(C(=O)Nc2ccc(CP(=O)(O)O)cc2CP(=O)(O)O)cc1NC(=O)Nc1cc(C(=O)Nc2ccc(CP(=O)(O)O)cc2CP(=O)(O)O)ccc1C | > 100 | > 100 | > 100 | > 100 | > 100 | > 100 | > 100 | > 100 | > 100 | > 100 | 
3 | COc1cc2c3c(n(C)c(=O)c2cc1OC)-c1cc2c(cc1/C3=C\CCCI)OCO2 | > 41.6 | > 52 | > 100 | > 100 | > 100 | > 85.6 | > 100 | > 100 | > 100 | > 93.3 | 
4 | Clc1cccc(NN=Nc2ccc(-c3nc4ccccc4s3)cc2)c1 | > 100 | 66.1 | > 100 | > 100 | 82.8 | > 100 | 27.2 | > 100 | 74.1 | > 100 | 
5 | Nc1nc(Cl)cc(NC2(CO)CCC2)n1 | > 100 | > 100 | > 100 | > 100 | > 100 | > 100 | > 100 | > 100 | > 100 | > 100 | 
6 | N=c1c2c(=S)n(-c3ccccc3)c(=S)n(-c3ccccc3)c2nc(SCCN2CCCC2)n1-c1ccccc1 | 32.9 | 8.29 | 32.1 | 12.4 | 2.94 | 3.03 | 0.88 | 18.4 | 42.1 | 23.5 | 
7 | COc1cc(OC)c2c3c(OC)cc(OC)c4c(=O)c(O)c(C[C@@H](C)O)c(c5c(C[C@@H](C)O)c(O)c(=O)c1c25)c43 | > 100 | 62.1 | > 100 | > 100 | 73.1 | > 100 | 30.7 | 44.7 | > 100 | 71.8 | 
8 | Nc1[nH]nc2nc3ccccc3nc12 | > 100 | > 100 | > 100 | > 100 | 87.9 | > 100 | > 100 | > 100 | > 100 | > 100 | 
9 | CCOC(=O)C(NC(=O)c1ccccc1)(N1CCN(c2cc3c(cc2F)c(=O)c(C(=O)O)cn3CC)CC1)C(F)(F)F (centres undefined) | > 100 | 90 | 45.3 | > 100 | > 100 | 94.8 | 43 | 90.7 | > 100 | 65.2 | 
10 | O=C1C(Cl)=C(N(C(=O)c2ccccc2)C(=O)c2ccccc2)C(=O)c2ccccc21 | > 100 | 24 | 34.3 | > 100 | 15.8 | 37.8 | 3.15 | > 100 | > 100 | > 100 | 
11 | C=C(NC(=O)C(=C)NC(=O)c1csc(C2=NC3c4csc(n4)C4NC(=O)c5csc(n5)C(C(C)(O)C(C)O)NC(=O)C5CSC(=N5)/C(=C/C)NC(=O)C(C(C)O)NC(=O)c5csc(n5)C3(CC2)NC(=O)C(C)NC(=O)C(=C)NC(=O)C(C)NC(=O)C(C(C)CC)NC2C=Cc3c(C(C)O)cc(nc3C2O)C(=O)OC4C)n1)C(N)=O (centres undefined) | 12.8 | > 24 | > 51.4 | 99.4 | 0.977 | 31.3 | > 100 | 3.8 | > 100 | 3.59 | 0.307
12 | C=C1C(=O)O[C@@H]2[C@H](O)[C@@H](C)[C@@H]3C=CC(=O)[C@@]3(C)[C@@H](OC(=O)/C(C)=C/C)[C@H]12 | 8.34 | 3.63 | 8.31 | 15.3 | 1.14 |  | 9.82 | 8.97 | 5.39 | 6.88 | 
13 | COC1=CC2(CC(OC)=C1OC)OC21COc2ccccc2C1=O (centres undefined) | > 100 | > 100 | > 100 | > 100 | > 100 | > 100 | > 100 | > 100 | > 100 | > 100 | 
14 | CC(C)(C)OC(=O)CN1CCNCCN(CC(=O)OC(C)(C)C)CCNCC1 | > 100 | > 100 | > 100 | > 100 | > 100 | > 100 | > 100 | > 100 | > 100 | > 100 | 
15 | O=C(Nc1cccc([N+](=O)[O-])c1)c1n[nH]n(-c2cccc([N+](=O)[O-])c2)c1=O | > 100 | > 100 | > 100 | > 100 | > 100 |  | > 100 | > 100 | > 100 | > 100 | 

Source: PubChem BioAssay (NCI)
